Results as given in publication PMC5617480 (Oncotarget, 2017).

System: telomeres/telomerase-related genes
Test: RT-qPCR array (Telomeres & Telomerase PCR Array)
Type: cell-based, human
Conditions: BEL-7404 cells, 10 μM, 24 h
Protocol: To determine the mechanism(s), we further explored the effect of complex 6 on the expression of telomeres/telomerase-related genes (such as TRF1, hTERT, TRF2, c-myc, and 53BP1) in the BEL-7404 model. Firstly, RT-qPCR array was used to determine mRNA levels of telomeres/telomerase-related gene expressions in BEL-7404 cells when the cells were treated with complex 6. […] Secondly, these telomerase-related genes were determined by western blot. […]
In addition, RNA
30.0 min at room temperature in the dark. Finally, the extraction, RT-PCR, and the selective binding to G4s by BEL-7404 cell cycle was determined with FACS Calibur complexes 4–6 was according to the our previous reported flow cytometer (BD) and analyzed using Cell Quest. […]
ME). Gene expression by a panel of genes for RT-Determination of caspase-3/9 activity by flow qPCR array cytometric analysis Differential expression of telomeres/telomerase-related genes was analyzed using the Telomeres &
Colorimetric analysis of caspase-9 and caspase-3 Telomerase PCR Array (RT2 Profiler™ PCR Array Human activation in BEL-7404 cells exposed to 10 μM of Telomeres & Telomerase, PAHS-010Z, SABioscience, complexes 4–6 for 24.0 h were carried out using the USA) obtained from Kangchen Bio-tech, Shanghai, China.
CaspGLOW™ Fluorescein Active Caspase-9/Caspase-3 RNA was extracted according to standard protocols and Staining Kit. The BEL-7404 cells treated with complexes converted to first strand cDNA using the RT2 First Strand 4–6 and the controlled BEL-7404 cells were harvested Kit. The template was added to an instrument specific, from RPMI 1640 medium with 10% FBS, in a density of ready-to-use RT2 SYBR Green qPCR Master Mix. The 1.0 × 10^6 cells per milliliter. These cells were washed with resulting mixture was added to the wells (25.0 μL/well) of PBS and centrifuged for 3 times, and were then mixed the PCR Array plate containing the telomere maintenance, with 500 μL culture. 1.0 μL of FITC-LEHD-FMK or/telomere-associated complexes, telomere regulation and FITC-DEVD-FMK were consequently added and other genes associated with telomeres gene-specific primer incubated for 2.0 h at 37 °C with 5% CO2. The BEL- sets (25 μL for 96-well plates) and PCR was performed.
7404 cells were then determined with a FACS AriaII flow The threshold cycle (Ct) values for all the genes on each cytometer equipped with a 488 nm argon laser. Results PCR Array were calculated using the instrument specific were represented as the percent change on the activity software and the fold-changes in gene expression for pair-comparing with the control group. wise comparison were calculated using the 2-ΔCt method.
Western blot assay TRAP Assay (TRAP-silver staining assay)
The BEL-7404 Cells were treated with the same as Each telomerase extract was prepared from BEL-the above for 24.0 h with complexes 4–6 (10 μM), and 7404 cells. A modified version of the TRAP assay was total proteins were extracted by lysis buffer RIPA. Then used. The PCR was performed in a final […] use BCA protein assay to measure concentrations of each reaction volume composed of reaction mix ([…]) sample. After electrophoresis on 10% PAGE-SDS gel containing pH 8.0 Tris-HCl (20.0 mM), deoxynucleotide and blotting, anti-mutp53, 53BP1, TRF1, TRF2, hTERT, triphosphates ([…]), BSA (20 mg/mL), primer

With cis-[PtCl2(S-(–)-FOA)] [complex 6] the “Fold Up-or Down-Regulation, ABL1” value was -1.25, the “Fold Up-or Down-Regulation, ACD” value was 1.16 and the “Fold Up-or Down-Regulation, ACTB” value was -1.32. For the same substance, the “Fold Up-or Down-Regulation, AKT1” value was -1.30, the “Fold Up-or Down-Regulation, ATM” value was 1.08 and the “Fold Up-or Down-Regulation, ATP5C1” value was 1.19. The “Fold Up-or Down-Regulation, B2M” value was 1.15, the “Fold Up-or Down-Regulation, BCL2” value was -1.32 and the “Fold Up-or Down-Regulation, BLM” value was 1.21. The “Fold Up-or Down-Regulation, CDK2” value was -1.24, the “Fold Up-or Down-Regulation, CHEK1” value was 1.13 and the “Fold Up-or Down-Regulation, CHEK2” value was 1.23. The “Fold Up-or Down-Regulation, DCLRE1B” value was -1.24, the “Fold Up-or Down-Regulation, DCLRE1C” value was 1.20 and the “Fold Up-or Down-Regulation, DKC1” value was 1.14. For the same substance, the “Fold Up-or Down-Regulation, EGF” value was 1.11, the “Fold Up-or Down-Regulation, EME1” value was 1.26 and the “Fold Up-or Down-Regulation, ERCC1” value was -1.00. The “Fold Up-or Down-Regulation, ERCC4” value was 1.22, the “Fold Up-or Down-Regulation, GAPDH” value was -1.04 and the “Fold Up-or Down-Regulation, GAR1” value was -1.05. For the same substance, the “Fold Up-or Down-Regulation, HAT1” value was 1.13, the “Fold Up-or Down-Regulation, HNRNPA2B1” value was 1.06 and the “Fold Up-or Down-Regulation, HNRNPD” value was -1.06. The “Fold Up-or Down-Regulation, HPRT1” value was 1.14, the “Fold Up-or Down-Regulation, HSP90AA1” value was 1.35 and the “Fold Up-or Down-Regulation, HSPA1L” value was 1.65. For the same substance, the “Fold Up-or Down-Regulation, IGF1” value was -57.88, the “Fold Up-or Down-Regulation, KRAS” value was -1.13 and the “Fold Up-or Down-Regulation, KRIT1” value was 1.12. The “Fold Up-or Down-Regulation, MEN1” value was 1.14, the “Fold Up-or Down-Regulation, MRE11A” value was 1.41 and the “Fold Up-or Down-Regulation, MSH2” value was -1.11. The “Fold Up-or Down-Regulation, MSH3” value was -1.51, the “Fold Up-or Down-Regulation, MUS81” value was 1.55 and the “Fold Up-or Down-Regulation, MYC” value was -1.33. The “Fold Up-or Down-Regulation, NBN” value was -1.27, the “Fold Up-or Down-Regulation, NCL” value was 1.04 and the “Fold Up-or Down-Regulation, NHP2” value was 1.46. The “Fold Up-or Down-Regulation, NOP10” value was -1.22, the “Fold Up-or Down-Regulation, OBFC1” value was 1.32 and the “Fold Up-or Down-Regulation, PARP1” value was 1.02. The “Fold Up-or Down-Regulation, PAX8” value was 9.91, the “Fold Up-or Down-Regulation, PIF1” value was -1.19 and the “Fold Up-or Down-Regulation, PINX1” value was 1.13. For the same substance, the “Fold Up-or Down-Regulation, PLK1” value was -1.39, the “Fold Up-or Down-Regulation, POT1” value was -1.14 and the “Fold Up-or Down-Regulation, PPARG” value was 1.08. For the same substance, the “Fold Up-or Down-Regulation, PPP2R1A” value was -1.13, the “Fold Up-or Down-Regulation, PPP2R1B” value was -1.46 and the “Fold Up-or Down-Regulation, PRKCA” value was 1.12. The “Fold Up-or Down-Regulation, PRKCB” value was -2.06, the “Fold Up-or Down-Regulation, PRKDC” value was -1.20 and the “Fold Up-or Down-Regulation, PTGES3” value was 1.07. The “Fold Up-or Down-Regulation, PURA” value was 1.07, the “Fold Up-or Down-Regulation, RAD17” value was 1.11 and the “Fold Up-or Down-Regulation, RAD50” value was 1.44. The “Fold Up-or Down-Regulation, RAP1A” value was -1.11, the “Fold Up-or Down-Regulation, RAPGEF1” value was -1.03 and the “Fold Up-or Down-Regulation, RASSF1” value was 1.26. For the same substance, the “Fold Up-or Down-Regulation, RB1” value was -1.70, the “Fold Up-or Down-Regulation, RFC1” value was 1.33 and the “Fold Up-or Down-Regulation, RIF1” value was 1.67. For the same substance, the “Fold Up-or Down-Regulation, RPLP0” value was 1.05, the “Fold Up-or Down-Regulation, RTEL1” value was -2.58 and the “Fold Up-or Down-Regulation, SART1” value was 1.50. For the same substance, the “Fold Up-or Down-Regulation, SIRT2” value was -1.19, the “Fold Up-or Down-Regulation, SIRT6” value was 1.89 and the “Fold Up-or Down-Regulation, SLX4” value was -1.15. For the same substance, the “Fold Up-or Down-Regulation, SMAD3” value was -1.55, the “Fold Up-or Down-Regulation, SMG6” value was 1.05 and the “Fold Up-or Down-Regulation, SP1” value was -1.43. For the same substance, the “Fold Up-or Down-Regulation, SSB” value was 1.14, the “Fold Up-or Down-Regulation, SUN1” value was 1.04 and the “Fold Up-or Down-Regulation, TEP1” value was 1.73. For the same substance, the “Fold Up-or Down-Regulation, TERF1” value was 1.39, the “Fold Up-or Down-Regulation, TERF2” value was -1.01 and the “Fold Up-or Down-Regulation, TERF2IP” value was 1.47. For the same substance, the “Fold Up-or Down-Regulation, TERT” value was -1.12, the “Fold Up-or Down-Regulation, TGFB1” value was 1.46 and the “Fold Up-or Down-Regulation, TINF2” value was 1.14. The “Fold Up-or Down-Regulation, TNKS” value was 1.12, the “Fold Up-or Down-Regulation, TNKS2” value was 1.02 and the “Fold Up-or Down-Regulation, TP53” value was 1.45. The “Fold Up-or Down-Regulation, TP53BP1” value was 1.18, the “Fold Up-or Down-Regulation, TPP1” value was 1.07 and the “Fold Up-or Down-Regulation, WRAP53” value was -1.06. For the same substance, the “Fold Up-or Down-Regulation, XRCC5” value was -1.32 and the “Fold Up-or Down-Regulation, XRCC6” value was 1.15.
